Reference: ChEMBL document CHEMBL1121391, “Antiamebic amidines and sulfonamides of 5- and 6-amino-2,3-bis(4-alkyl-1-piperazinyl)quinoxalines” (1980)
Calls of active or inactive are those of the source. The rule behind the calls is not given here.

Key:
Entamoeba histolytica [1] = assay: (§1) Lowest active dose which cured rats with Entamoeba histolytica cecal infection was measured; format: functional, organism-based
Entamoeba histolytica [2] = assay: Lowest active dose which cured hamsters with Entamoeba histolytica hepatic infection was measured; format: functional
Entamoeba histolytica [3] = assay: as §1; format: functional
Cricetinae gen. sp. = assay: Lowest active dose which cured the hamsters with Entamoeba histolytica hepatic infection was measured; IA means inactive; format: functional, organism-based; conditions: Cricetulus griseus

SMILES	Dose (Entamoeba histolytica [1])	Dose (Entamoeba histolytica [3]) [mg/kg/day]	other results
C/C(=N\c1cccc2nc(N3CCN(C)CC3)c(N3CCN(C)CC3)nc12)N(C)C	inactive	–	–
CC/C(=N\c1cccc2nc(N3CCN(C)CC3)c(N3CCN(C)CC3)nc12)N(C)C	inactive	–	–
C/C(=N\c1ccc2nc(N3CCN(C)CC3)c(N3CCN(C)CC3)nc2c1)N(C)C	inactive	–	–
CCCN1CCN(c2nc3ccc(N)cc3nc2N2CCN(CCC)CC2)CC1	inactive	–	–
Cc1ccc(S(=O)(=O)Nc2ccc3nc(N4CCN(C)CC4)c(N4CCN(C)CC4)nc3c2)cc1	–	50	Dose (Entamoeba histolytica [2]): 100 mg/kg/day
CC/C(=N\c1ccc2nc(N3CCN(C)CC3)c(N3CCN(C)CC3)nc2c1)N(CC)CC	inactive	–	–
CCCN1CCN(c2nc3cccc(N)c3nc2N2CCN(CCC)CC2)CC1	inactive	–	–
CN1CCN(c2nc3ccc(/N=C/N4CCCCC4)cc3nc2N2CCN(C)CC2)CC1	inactive	–	–
CCN(/C=N/c1ccc2nc(N3CCN(C)CC3)c(N3CCN(C)CC3)nc2c1)CC	inactive	–	–
Cc1ccc(S(=O)(=O)Nc2cccc3nc(N4CCN(C)CC4)c(N4CCN(C)CC4)nc23)cc1	inactive	–	–
O=[N+]([O-])c1cncn1CCN1CCOCC1 [NIMORAZOLE]	–	20	Dose (Entamoeba histolytica [2]): 100 mg/kg/day
CCCN1CCN(c2nc3ccc(/N=C/N(C)C)cc3nc2N2CCN(CCC)CC2)CC1	–	50	Dose (Entamoeba histolytica [2]): 100 mg/kg/day
Cc1ncc([N+](=O)[O-])n1CCO [METRONIDAZOLE]	–	10	Dose (Entamoeba histolytica [2]): 10 mg/kg/day
CN1CCN(/C=N/c2ccc3nc(N4CCN(C)CC4)c(N4CCN(C)CC4)nc3c2)CC1	inactive	–	–
CN(C)/C=N/c1cc(Cl)cc2nc(N3CCN(C)CC3)c(N3CCN(C)CC3)nc12 (stereo in doubt; 21)	inactive	–	–
CCN(CC)/C(C)=N/c1cc(Cl)cc2nc(N3CCN(C)CC3)c(N3CCN(C)CC3)nc12	inactive	–	–
CN1CCN(c2nc3cc(Cl)cc(NS(=O)(=O)c4ccc(Cl)cc4)c3nc2N2CCN(C)CC2)CC1	inactive	–	–
CN(C)/C=N/c1cc(Cl)cc2nc(N3CCN(C)CC3)c(N3CCN(C)CC3)nc12 (stereo in doubt; 7)	inactive	–	–
CCCN1CCN(c2nc3ccc(/N=C(\C)N(C)C)cc3nc2N2CCN(CCC)CC2)CC1	inactive	–	–
CCCN1CCN(c2nc3ccc(NS(=O)(=O)c4ccc(C)cc4)cc3nc2N2CCN(CCC)CC2)CC1	inactive	–	–
CN1CCN(c2nc3cccc(N)c3nc2N2CCN(C)CC2)CC1	–	50	Dose (Cricetinae gen. sp.): inactive
CC/C(=N\c1cc(Cl)cc2nc(N3CCN(C)CC3)c(N3CCN(C)CC3)nc12)N(C)C	inactive	–	–
CN1CCN(c2nc3ccc(NS(=O)(=O)c4cccc(C(F)(F)F)c4)cc3nc2N2CCN(C)CC2)CC1	inactive	–	–
CN(C)/C=N/c1ccc2nc(N3CCN(C)CC3)c(N3CCN(C)CC3)nc2c1	–	20	Dose (Entamoeba histolytica [2]): 50 mg/kg/day
CN(C)/C=N/c1cccc2nc(N3CCN(C)CC3)c(N3CCN(C)CC3)nc12	–	10	Dose (Entamoeba histolytica [2]): 50 mg/kg/day
CN(C)CCCN1CCN(/C=N/c2ccc3nc(N4CCN(C)CC4)c(N4CCN(C)CC4)nc3c2)CC1	inactive	–	–
CN1CCN(c2nc3cc(Cl)cc(N)c3nc2N2CCN(C)CC2)CC1	inactive	–	–
CN1CCN(c2nc3ccc(NS(=O)(=O)c4ccc(Cl)cc4)cc3nc2N2CCN(C)CC2)CC1	inactive	–	–
CN(C)CCCc1ccc(/C=N/c2ccc3nc(N4CCN(C)CC4)c(N4CCN(C)CC4)nc3c2)cc1	–	50	–
CN1CCN(c2nc3ccc(N)cc3nc2N2CCN(C)CC2)CC1	–	50	Dose (Cricetinae gen. sp.): inactive
